The series can be described thus: Spectral CT iodine-no-water map of rat thyroid before and after oral potassium iodide. It is filed as in vivo. Conditions: Fischer rats, 654 mg potassium iodide (500 mg iodine) oral gavage, 10 hours of uptake; baseline 1.5 mg I/mL. Here is the method: Next, a Philips IQon Spectral CT scanner was used to obtain in vivo animal data. Three healthy female Fischer rats ranging from 150 g to 250 g mass were each anesthetized using 2.5% isoflurane and scanned in a supine position using the highest resolution settings for the IQon Spectral CT clinical scanner (0.625 mm slice thickness with 0.20 mm in-plane pixel resolution). The baseline endogenous iodine levels within the rat thyroid were measured using the iodine-no-water map and averaged 1.5 mg I/mL. These levels are similar to the baseline endogenous iodine levels found within healthy human thyroid tissue. The rats were then each given a bolus dose of 654 mg of potassium iodide (equivalent to 500 mg of iodine) that was dissolved in 1 mL of water and administered orally using a gavage. After 10 hours of uptake the rats were again anesthetized with 2.5% isoflurane and scanned a second time on the IQon Spectral CT using the same settings as before. The iodine levels within the rat thyroid now averaged 3.0 mg I/mL, or a 100% increase in iodine. […] Generally, a 500 mg dose of oral iodine given to humans can increase the level of organified iodine in the thyroid tissue (after a full 24 hours of uptake) from 1.5 mg I/mL to 5-10 mg I/ml depending on total thyroid volume. […]

SMILES strings stand for the structures.

In the case of `[I-].[K+]` [potassium iodide], the “iodine levels within the rat thyroid (average)” value came to 3.0 mg I/mL.
